Calls of active or inactive are those of the source. How the calls were made is not given here.
Tested on: M. tuberculosis H37Rv growth inhibition with meropenem
Test: dose response, H37Rv, with and without meropenem (AID 434987);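 further: growth over 7 days at 37 °C before Alamar Blue read on day 9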
[1] = M. tuberculosis H37Rv growth inhibition, measured here: IC50 without meropenem
[2] = M. tuberculosis H37Rv growth inhibition, measured here: IC90 without meropenem
[3] = measured here: IC90 with meropenem

| SMILES | IC50 | IC50 [1] [µM] | IC90 [2] [µM] | IC90 [3] [µM] |
| --- | --- | --- | --- | --- |
| CC(C)(C)C1=Nn2c(nnc2-c2ccccc2F)SC1 | 17.3 µM | > 100 | > 100 | 78.3 |
| CCCc1cc(NC(=O)COC(=O)c2nccnc2N)n(-c2ccccc2)n1 | 49.3 µM (inactive) | 68.4 | > 100 | 50.8 |
| COc1ccc(/C=N/Nc2nc(-c3ccc(C)cc3)c(NC(C)=O)s2)cc1 | 24.2 µM | > 100 | > 100 | > 100 |
| Cc1ncc(CCl)c2c1OC(C)(C)OC2 | 42.5 µM (inactive) | 89.2 | > 100 | > 100 |
| CC(C)(C)C1CCC(OCC(O)CN2CCN(c3ccccn3)CC2)CC1 (configuration not stated) | 100 µM (inactive) | > 100 | > 100 | > 100 |
| Brc1ccc(CNc2ccc3ncccc3c2)cc1 | > 100 µM (inactive) | > 100 | > 100 | > 100 |
| Cn1nnnc1Sc1ncnc2scc(-c3cccc(F)c3)c12 | 15.4 µM | > 100 | > 100 | > 100 |
| COc1cc2c(cc1OC)C(c1ccccc1)CC2=O (configuration not stated) | 43.3 µM (inactive) | 94 | > 100 | > 100 |
| O=C(c1cccc(C(=O)N2CCN(c3ccc(F)cc3)CC2)c1)N1CCN(c2ccc(F)cc2)CC1 | 93.2 µM (inactive) | 95.2 | > 100 | > 100 |
| Cc1cccc(NC(=S)NC2CC3C=CC2C3)c1 (configuration not stated) | 22.3 µM (inactive) | 23.8 | > 100 | > 100 |
| COc1ccc(C(=O)/C=C/c2ccc(O)cc2)c(O)c1CC=C(C)C | 54.3 µM (inactive) | 64.8 | 98.4 | 75.1 |
| COc1cccc(NS(=O)(=O)c2ccc3[nH]cc(C(=O)NCCC(C)C)c(=O)c3c2)c1 | > 100 µM (inactive) | > 100 | > 100 | > 100 |
| Nc1c(Cl)cc(-c2csc(N3CCCC3c3nc4cc(Cl)c(N5CCCCC5)cc4n3CCCO)n2)cc1Cl (configuration not stated) | 97.3 µM (inactive) | > 100 | > 100 | > 100 |
| COc1ccc(C(=O)/C=C/c2cccs2)c(OC(=O)c2cccc([N+](=O)[O-])c2)c1 | 29.5 µM (inactive) | 54.8 | 85.2 | > 100 |
| Cc1cc(C)c(C)c(S(=O)(=O)N2C(=S)NC(=O)C2C(C)C)c1C (configuration not stated) | 10.1 µM | 38.5 | > 100 | > 100 |
| C/C(=N/NC(=O)c1cccs1)c1c(C)[nH]n(-c2nc3ccccc3s2)c1=O | 1.44 µM (inactive) | 1.52 | 1.69 | 1.58 |
| C/C(CC(=O)NCc1ccco1)=N\NC(=O)CC#N | 4.68 µM | 43.3 | > 100 | 17.6 |
| O=C(NCC1COc2ccccc2O1)C1CCC(CNc2c(N3CCCCC3)c(=O)c2=O)CC1 (configuration not stated) | 24 µM (inactive) | 45.9 | 51.7 | 26.7 |
| Cc1ccc(C(C)C)c(OCc2ccc(C(=O)N/N=C/c3ccc(C(=O)O)cc3)cc2)c1 | 13.4 µM | 43.3 | 84.9 | 49.5 |
| Cn1c(O)c(/C=C2/C=CC=N2)c(=O)[nH]c1=O | 18.3 µM | > 100 | > 100 | > 100 |

| SMILES | IC50 | IC50 [1] [µM] | IC90 [2] [µM] | IC90 [3] [µM] |
| --- | --- | --- | --- | --- |
| CCC(=O)N1CCN(c2ccc(NC(=S)NC(=O)c3ccc(OC)c([N+](=O)[O-])c3)cc2)CC1 | 40.2 µM (inactive) | 79.6 | > 100 | 67.8 |
| O=S(=O)(Cc1ccccc1)c1cnc2ccccc2n1 | 14.1 µM (inactive) | 24.3 | 26.6 | 48.6 |
| CCC(C)NCCOCCOc1ccc(Cl)c2ccccc12 (configuration not stated) | 32 µM (inactive) | 38.3 | 53.3 | 50.7 |
| Cc1ccc(OCC(=O)Nc2ccc3c4c(cccc24)CC3)c(C)c1 | 1.71 µM | > 100 | > 100 | > 100 |
| Cc1nc2ccccc2c(=O)n1/N=C/c1c(O)ccc2oc3c(c12)CCCC3 | > 100 µM (inactive) | > 100 | > 100 | > 100 |
| O=C1C2ON(c3ccc(Br)cc3)C(c3cccnc3)C2C(=O)N1C1CCCCC1 (configuration not stated) | > 100 µM (inactive) | > 100 | > 100 | > 100 |
| O=C(OC(C(=O)Nc1ccc(Cl)cc1C(F)(F)F)c1ccccc1)C1=COCCO1 (configuration not stated) | 1.23 µM | > 100 | > 100 | > 100 |
| O=S1(=O)CCO[C@H]2Cc3ccccc3[C@H]2N1Cc1ccc(F)cc1 | > 100 µM (inactive) | > 100 | > 100 | > 100 |
| CC(=O)NC(=S)Nc1ccc(NC(=O)c2cccs2)cc1 | 48.7 µM (inactive) | > 100 | > 100 | > 100 |
| CC(C(=O)Nc1cc([N+](=O)[O-])ccc1Cl)N1CCN(c2ccccc2O)CC1 (configuration not stated) | > 100 µM (inactive) | > 100 | > 100 | > 100 |
| CC1CCN(C(=S)NC(=O)c2ccccc2)CC1 | 12 µM | 40.7 | 77.6 | 13.6 |
| NCCS | > 100 µM (inactive) | > 100 | > 100 | > 100 |
| O=C(Nc1ccc(N2CCCCC2)cc1)c1cc([N+](=O)[O-])cc([N+](=O)[O-])c1 | 43.9 µM (inactive) | > 100 | > 100 | > 100 |
| O=C(CCC(=O)Nc1ccccc1)NNC(=O)c1ccco1 | > 100 µM (inactive) | > 100 | > 100 | > 100 |
| COc1cccc(-n2c([S-])c(C(=O)Nc3ccc(S(=O)(=O)N4CCOCC4)cc3)[n+]3cc(C(N)=O)ccc23)c1 | > 100 µM (inactive) | > 100 | > 100 | > 100 |
| Cc1onc(NC(=O)c2ccc([N+](=O)[O-])o2)c1Br | 6.54 µM | 26.2 | 36 | 16.4 |
| COC(=O)Cn1c2ccccc2c2nc(C)sc21 | 18.9 µM (inactive) | 25.4 | 44.4 | 27.8 |
| CCn1c2ccccc2c2cc(NC(=O)c3cccc(OC)c3OC)ccc21 | > 100 µM (inactive) | > 100 | > 100 | > 100 |
| C=CCN(C(=O)CN1CCOCC1)c1nc(C)c(-c2ccccc2)s1 | > 100 µM (inactive) | > 100 | > 100 | > 100 |
| Cc1cccc(C)c1NC(=O)C1CC2CCC1C2 (configuration not stated) | > 100 µM (inactive) | > 100 | > 100 | > 100 |

| SMILES | IC50 | IC50 [1] [µM] | IC90 [2] [µM] | IC90 [3] [µM] |
| --- | --- | --- | --- | --- |
| CCN(Cc1ccncc1)C(=O)C(CO)c1ccccc1 (configuration not stated) | > 100 µM (inactive) | > 100 | > 100 | > 100 |
| COc1cc2c(C(=O)N3CCN(c4ccccc4C)CC3)c(C)oc2cc1Br | > 100 µM (inactive) | > 100 | > 100 | > 100 |
| CN(c1ccc(C(=O)Nc2ccccc2Sc2ccccc2)cc1)S(C)(=O)=O | > 100 µM (inactive) | > 100 | > 100 | > 100 |
| COc1ccc(C(=O)Nc2nc3ccccc3s2)c(OC)c1 | > 100 µM (inactive) | > 100 | > 100 | > 100 |
| CCOc1ccc(-c2cnc3n2CCC3)cc1 | 35 µM | > 100 | > 100 | > 100 |
| CC(C(=O)Nc1sc2c(c1C(=O)NCc1ccco1)CCCC2)N1C(=O)c2ccccc2C1=O (configuration not stated) | 46.1 µM (inactive) | > 100 | > 100 | > 100 |
| Cc1ccc2nc(-c3ccc(NC(=S)NC(=O)C(C)C)cc3)sc2c1 | > 100 µM (inactive) | > 100 | > 100 | > 100 |
| COc1cc(OC)c(C(=O)Nc2cccc3ccccc23)cc1OC | > 100 µM (inactive) | > 100 | > 100 | > 100 |
| CCN(CC)c1ccc(CN2CCCCCC2)cc1 | 43.6 µM (inactive) | 48.1 | > 100 | 49.4 |
| Cc1ccc(S(=O)(=O)N[C@H](C(=O)OCn2nnc3ccccc3c2=O)C(C)C)cc1 | > 100 µM (inactive) | > 100 | > 100 | > 100 |
| CCOC(=O)c1ccccc1NC(=O)C1COc2ccccc2O1 (configuration not stated) | 12.1 µM | 36.2 | > 100 | > 100 |
| CSc1nc(-c2ccc(Cl)cc2)nn1S(=O)(=O)c1ccccc1 | 9.85 µM | > 100 | > 100 | > 100 |
| COc1ccc(C(=O)Nc2ccc3nc(N4CCCCC4)cc(C)c3c2)c(OC)c1 | 5.19 µM | > 100 | > 100 | > 100 |
| COC(=O)/C(=C\Nc1ccc(Cl)cc1Cl)NC(=O)c1ccc(Cl)cc1Cl | > 100 µM (inactive) | > 100 | > 100 | > 100 |
| CC(=O)n1cc([C@@H]2C=C(C(=O)N3CCN(Cc4ccc5c(c4)OCO5)CC3)O[C@H](OCCCCO)C2)c2ccccc21 | > 100 µM (inactive) | 84 | > 100 | > 100 |
| CCC(C)Nc1c2c(nc3c(-c4ccccc4)c(C)nn13)CCC2 (configuration not stated) | > 100 µM (inactive) | > 100 | > 100 | > 100 |
| O=C(CCSc1ccccc1)Nc1nc2c(s1)CCCC2 | > 100 µM (inactive) | > 100 | > 100 | > 100 |
| CCOc1ccc(S(=O)(=O)n2nnc3ccccc32)cc1C(C)C | > 100 µM (inactive) | > 100 | > 100 | > 100 |

From PubChem BioAssay AID434987 (Southern Research Specialized Biocontainment Screening …, 2010)
